Results from patent US9067914B1, “Tropomyosin-related kinase (TRK) inhibitors” (Genzyme Corporation, priority 2013, dated 2015).
Where a name gives a salt, the structure may show the parent alone.

Key:
TrkB = TrkB (Homo sapiens (Human), UniProt Q16620); test: TrkB activity, off-chip mobility shift assay (LabChip 3000); format: biochemical; details: 70 μM ATP (ATP Km); n/d = none detected
[1] = system: MIA induced osteoarthritis in male Wistar rats; test: Monosodium iodoacetate (MIA) induced osteoarthritis, weight bearing; format: in vivo, rat
Source text: Male Wistar rats were acclimated to the testing facility for 5 days. The rats were individually housed in micro-isolator shoe-box polycarbonate cages with cob bedding and water bottles. Dry pelleted food of known composition and nutritional components was provided ad libitum
Animals were randomized by treatment type using an online random number generator. Each treatment group was assigned a number, entered into the random number generator, recorded then translated back to the associated treatment. All injections were given in the left leg unless the treatment indicated “Contralateral” in which case the injection was given in the right leg. Both legs were shaved on all animals at the time of the treatment injections to blind the test administrator.
The rats were weighed the day prior to injection with monosodium iodoacetate (MIA), the agent used to induce osteoarthritis in the animals. The day of injection, rats from groups 2-8 received a subcutaneous (SC) dose of buprenorphine at least one hour prior to induction. […] Naïve animals were then placed in recovery. All other animals received an injection of MIA. In animals receiving MIA, the hind leg was flexed and an injection of MIA (25 μL) was injected into the intra-articular space using a 27 gauge ½ inch needle. Standard postoperative care was performed (twice daily for 48 hours).
On Day 8 the test article was administered as described above. On Days −1, 7, 14, 21, 28, and 35 post-induction, weight bearing was assessed. A weight bearing scale was utilized using a plexiglass chamber to assess the amount of weight distributed in each hind limb. The animals were acclimated to the chamber for at least 5 minutes prior to testing and the weight distribution was recorded 5 times.
The animals were terminated at day 36. Both stifles were collected from each animal; the skin was removed from the joint and the patella was removed while leaving as much of the fat pad intact with the joint. The stifle was placed in the appropriate cassette with rolled gauze to secure the stifle in the cassette and then placed into 4% Paraformaldehyde. These samples were examined histologically.

TrkA = TrkA (Homo sapiens (Human), UniProt P04629); test: TrkA activity, off-chip mobility shift assay (LabChip 3000); format: biochemical; details: 55 μM ATP (ATP Km); n/d = none detected
Sequence of TrkA (P04629 33-796): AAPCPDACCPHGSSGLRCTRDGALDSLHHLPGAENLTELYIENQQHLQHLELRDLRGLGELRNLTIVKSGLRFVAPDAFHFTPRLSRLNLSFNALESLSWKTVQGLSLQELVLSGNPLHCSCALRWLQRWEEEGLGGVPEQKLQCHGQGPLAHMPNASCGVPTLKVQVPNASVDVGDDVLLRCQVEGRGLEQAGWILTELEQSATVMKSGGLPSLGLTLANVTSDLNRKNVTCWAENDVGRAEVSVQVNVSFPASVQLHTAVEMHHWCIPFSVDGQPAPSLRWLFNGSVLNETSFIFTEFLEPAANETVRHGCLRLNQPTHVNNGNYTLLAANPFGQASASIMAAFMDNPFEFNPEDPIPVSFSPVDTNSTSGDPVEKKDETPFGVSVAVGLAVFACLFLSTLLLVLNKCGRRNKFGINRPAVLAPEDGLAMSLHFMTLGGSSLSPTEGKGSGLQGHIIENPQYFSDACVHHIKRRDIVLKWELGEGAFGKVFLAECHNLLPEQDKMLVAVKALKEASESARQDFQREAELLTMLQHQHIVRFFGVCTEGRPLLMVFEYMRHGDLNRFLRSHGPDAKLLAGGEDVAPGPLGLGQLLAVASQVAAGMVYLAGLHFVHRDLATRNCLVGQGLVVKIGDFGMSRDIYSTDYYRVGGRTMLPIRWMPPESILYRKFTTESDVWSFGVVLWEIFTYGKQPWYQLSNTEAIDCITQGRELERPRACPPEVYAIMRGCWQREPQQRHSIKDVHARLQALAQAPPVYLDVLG

[2] = system: PGPS knee arthritis in male Lewis rats; test: Reactivated peptidoglycan-polysaccharide (PGPS) knee arthritis; format: in vivo, rat; details: for Gait scores and deficiency, first reactivation / Gait scores and deficiency, second reactivation: significant reduction: male Lewis rats; for Gait scores and deficiency, first reactivation: days 1-4; for Gait scores and deficiency, second reactivation: significant reduction: days 14-18
Source text: Male Lewis rats were acclimated to the testing facility for 7 days. The rats were housed in 5 per cage in shoe-box polycarbonate cages with wire tops, wood chip bedding and suspended food and water bottles.
On day −21, the male Lewis rats were randomized into treatment groups by body weight. The rats were anesthetized and injected with peptidoglycan-polysaccharide (PGPS) into the right knee to induce PGPS arthritis. Arthritis was reactivated on days 0 and 14 by an IV tail injection of PGPS.
The rats were weighed at baseline on days 0, 4, 14 and 18. Knee thickness was measured by caliper at baseline and on days 0, 2, 4, 14, 16 and 18. Gait analysis occurred on days 0-4 and 14-18, with video recording of selected animals on days 3 and 17. Gait analysis was performed by applying ink to the ventral surface of the foot and documenting weight bearing during movement across paper.
The animals were terminated at day 18. Right knees were removed, trimmed of extraneous tissue, and collected into 10% neutral buffered formalin. After two days in the formalin buffer and three days in 10% formic acid decalcifier, the knees were cut into two approximately equal halves in the frontal plane and processed for paraffin embedding and stained with T.Blue. Histological examinations were subsequently performed for bone resorption, inflammation, pannus and cartilage damage.
Body weights, gait deficiency and caliper measurements were analyzed using a one-way analysis of variance (1-way ANOVA) with Dunnett's multiple comparison post-test. Gait scores were analyzed using a Kruskal-Wallis test (non-parametric ANOVA) with Dunn's multiple comparison post-test. Histopathology scores were analyzed using a Kruskal-Wallis test (non-parametric ANOVA) with Dunn's multiple comparison post-test.

[3] = intra-articular on day -7 (Triamcinolone 0.06 mg; test compound 1 mg)
[4] = intra-articular on day -7, 1 mg
[5] = right knee, day 18, intra-articular on day -7 (Triamcinolone 0.06 mg; test compound 1 mg)

Sequence of TrkB (Q16620 32-822): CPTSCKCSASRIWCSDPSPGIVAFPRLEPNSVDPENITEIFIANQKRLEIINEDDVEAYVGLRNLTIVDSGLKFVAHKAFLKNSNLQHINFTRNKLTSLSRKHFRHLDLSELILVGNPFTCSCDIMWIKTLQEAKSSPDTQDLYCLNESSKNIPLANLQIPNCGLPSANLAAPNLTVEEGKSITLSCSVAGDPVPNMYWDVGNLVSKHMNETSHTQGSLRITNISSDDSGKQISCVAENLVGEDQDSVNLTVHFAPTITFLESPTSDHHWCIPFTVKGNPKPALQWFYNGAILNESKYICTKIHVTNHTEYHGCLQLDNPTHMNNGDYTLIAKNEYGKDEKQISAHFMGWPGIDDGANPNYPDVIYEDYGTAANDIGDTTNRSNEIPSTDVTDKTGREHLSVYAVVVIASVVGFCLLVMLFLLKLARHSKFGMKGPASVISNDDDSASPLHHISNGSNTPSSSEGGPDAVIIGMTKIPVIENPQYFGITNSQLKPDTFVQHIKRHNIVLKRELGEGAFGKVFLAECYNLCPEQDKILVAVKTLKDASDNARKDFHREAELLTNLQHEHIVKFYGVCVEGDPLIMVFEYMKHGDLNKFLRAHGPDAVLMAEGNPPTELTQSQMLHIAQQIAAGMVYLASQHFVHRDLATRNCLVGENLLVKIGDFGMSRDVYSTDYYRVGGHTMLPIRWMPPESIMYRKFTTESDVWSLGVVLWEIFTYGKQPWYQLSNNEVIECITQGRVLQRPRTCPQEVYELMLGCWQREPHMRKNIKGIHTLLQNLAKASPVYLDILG

COc1ccc(COc2ccc(Cn3c(N)nc4cc(-c5cnn(C)c5)cnc43)cc2OC)cc1 [Ex. 3-15, 3-(3-Methoxy-4-((4-methoxybenzyl)oxy)benzyl)-6-(1-methyl-1H-pyrazol-4-yl)-3H-imidazo[4,5-b]pyridin-2-amine]
IC50 (TrkB): 0.1 nM
Efficacy (weight bearing) ([1]; 10 μg Contralateral injection on Day 8): efficacy at 3 and 4 weeks following administration
Efficacy (weight bearing) ([1]; 10 μg Ipsilateral injection on Day 8): efficacy was observed at 2 through 4 weeks following administration
Efficacy (weight bearing) ([1]; 30 μg Contralateral injection on Day 8): efficacy at only the 3 week timepoint
Efficacy (weight bearing) ([1]; 30 μg Ipsilateral injection on Day 8): effective throughout the four weeks following administration
Systemic pain relief (weight bearing) ([1]; 100 μg Contralateral injection on Day 8, 1-4 weeks): did not show systemic pain relief at any timepoint
Efficacy (weight bearing) ([1]; 100 μg Ipsilateral injection on Day 8): effective throughout the four weeks following administration
Comparison with MIA/LRS at day 35 (p<0.05) ([1]; Ipsilateral 30 μg): MIA/LRS was significantly worse
Comparison with MIA/LRS at day 35 (p<0.05) ([1]; Ipsilateral 100 μg): MIA/LRS was significantly worse
Body weight results ([1]; male Wistar rats, intra-articular on Day 8): No adverse observations
Histopathology of the knee joint ([1]; stifles collected at day 36): no adverse changes
IC50 (TrkA): 0.3 nM
Knee caliper measurements [2, 3]: significantly reduced on day 14
Reduction of knee caliper AUC [2, 3]: generally unaffected
Reduction of gait scores and deficiency AUC, first reactivation [2, 4]: 92-93%
Reduction of gait scores and deficiency AUC, second reactivation [2, 4]: 85-86%
Reduction of summed AUC for gait deficiency [2, 4]: 84%
Gait scores and deficiency, first reactivation [2, 3]: significant reductions
Gait scores and deficiency, second reactivation: significant reduction [2, 3]: Scores were significantly reduced throughout the second reactivation, and reductions in deficiency were significant on days 15, 17, and 18
Histopathology: reduction in summed scores [2, 5]: 70%
Histopathology: reductions in all parameters (bone resorption, inflammation, pannus, cartilage damage) [2, 5]: 49-94%

COc1cc(C(C)n2cnc3cc(C#CCCO)ccc32)ccc1OCc1ccc(C(F)(F)F)nc1 (centres unmarked) [Ex. 3-48-2, 4-(1-(1-(3-methoxy-4-((6-(trifluoromethyl)pyridin-3-yl)methoxy)phenyl)ethyl)-1H-benzo[d]imidazol-5-yl)but-3-yn-1-ol]
IC50 (TrkB): 127 nM
IC50 (TrkA): 692 nM

COc1cc(C(C)n2cnc3cc(-c4cnn(C)c4)cnc32)ccc1OCc1ccc(C(F)(F)F)nc1 (centres unmarked) [Ex. 3-52, 3-(1-(3-methoxy-4-((6-(trifluoromethyl)pyridin-3-yl)methoxy)phenyl)ethyl)-6-(1-methyl-1H-pyrazol-4-yl)-3H-imidazo[4,5-b]pyridine]
IC50 (TrkB): 1 nM
IC50 (TrkA): 7 nM

COc1cc(C(C)n2c(N)nc3cc(-c4cnn(C)c4)cnc32)ccc1OCc1ccc(C(F)(F)F)nc1 (centres unmarked) [Ex. 3-53, 3-(1-(3-methoxy-4-((6-(trifluoromethyl)pyridin-3-yl)methoxy)phenyl)ethyl)-6-(1-methyl-1H-pyrazol-4-yl)-3H-imidazo[4,5-b]pyridin-2-amine]
IC50 (TrkB): 0.6 nM
IC50 (TrkA): 0.4 nM

COc1cc(C(C)n2c(N)nc3cc(C#CCCO)cnc32)ccc1OCc1ccc(C(F)(F)F)nc1 (centres unmarked) [Ex. 3-55, 4-(2-amino-3-(1-(3-methoxy-4-((6-(trifluoromethyl)pyridin-3-yl)methoxy)phenyl)ethyl)-3H-imidazo[4,5-b]pyridin-6-yl)but-3-yn-1-ol]
IC50 (TrkB): 1 nM
IC50 (TrkA): 1 nM

COc1cc(Cn2cnc3cc(C#CCCO)cnc32)ccc1OCc1ccc(C(F)F)nc1 [Ex. 3-56, 4-(3-(4-((6-(difluoromethyl)pyridin-3-yl)methoxy)-3-methoxybenzyl)-3H-imidazo[4,5-b]pyridin-6-yl)but-3-yn-1-ol]
IC50 (TrkB): 4 nM
IC50 (TrkA): 17 nM

COc1ccc(C(C)Oc2ccc(Cn3cnc4cc(-c5cnn(C)c5)cnc43)cc2OC)cn1 (centres unmarked) [Ex. 3-57, 3-(3-methoxy-4-(1-(6-methoxypyridin-3-yl)ethoxy)benzyl)-6-(1-methyl-1H-pyrazol-4-yl)-3H-imidazo[4,5-b]pyridine formate]
IC50 (TrkB): 13 nM
IC50 (TrkA): 35 nM

COc1ccc(C(C)Oc2ccc(Cn3cnc4cc(-c5ccnn5C)cnc43)cc2OC)cn1 (centres unmarked) [Ex. 3-58-1, 3-(3-methoxy-4-(1-(6-methoxypyridin-3-yl)ethoxy)benzyl)-6-(1-methyl-1H-pyrazol-5-yl)-3H-imidazo[4,5-b]pyridine formate]
IC50 (TrkB): 219 nM
IC50 (TrkA): 449 nM

COc1ccc(-c2cnc3c(c2)ncn3Cc2ccc(OC(C)c3ccc(OC)nc3)c(OC)c2)cn1 (centres unmarked) [Ex. 3-58-2, 3-(3-methoxy-4-(1-(6-methoxypyridin-3-yl)ethoxy)benzyl)-6-(6-methoxypyridin-3-yl)-3H-imidazo[4,5-b]pyridine formate]
IC50 (TrkB): 61 nM
IC50 (TrkA): 160 nM

COc1ccc(C(C)Oc2ccc(Cn3cnc4cc(-c5ccnc(F)c5)cnc43)cc2OC)cn1 (centres unmarked) [Ex. 3-58-3, 6-(2-fluoropyridin-4-yl)-3-(3-methoxy-4-(1-(6-methoxypyridin-3-yl)ethoxy)benzyl)-3H-imidazo[4,5-b]pyridine formate]
IC50 (TrkB): 68 nM
IC50 (TrkA): 215 nM

C[C@]12C=CC(=O)C=C1CC[C@H]1[C@@H]3C[C@@H](O)[C@](O)(C(=O)CO)[C@@]3(C)C[C@H](O)[C@@]12F [Triamcinolone, reference compound]
Knee caliper measurements [2, 3]: significantly reduced on days 2, 4, 16, and 18, as well as prior to the first reactivation on day 0
Reduction of knee caliper AUC [2, 3]: 53-106%
Gait scores and deficiency, first reactivation [2, 3]: significantly reduced
Gait scores and deficiency, second reactivation: significant reduction [2, 3]: on day 15, 17, and 18
Histopathology: reduction in summed scores [2, 5]: 74%
